Test results: patent publication US8334298B2, “Treatment or prevention of ovarian hyperstimulation syndrome (OHSS) using a dopamine agonist” (Ferring International Center S.A., priority 2005, dated 2012)
Values joined by “and” are separate entries in the source; they are usually repeats but may differ in a detail not shown here. Equal values may be shown once.

Experiments:
OHSS rats [1] = experiment: Dose response of quinagolide on vascular permeability in OHSS rats, reassessment (Example 5); assay type: in vivo, Wistar rats; settings: single rat
Method: (§1) Inducing OHSS manifestations. A total of 96 female immature Wistar rats (Harlan Iberica, Sant Feliu de Codina, Barcelona, SPAIN), weighing from 42-48 grams at the beginning of these experiments (day 22), were used to carry out the studies disclosed in Examples 4 and 5. They were injected subcutaneously (s.c) with 10 IU of Pregnant Mare's Serum Gonadotropin (PMSG) (Sigma) for 4 consecutive days (days 22-25), followed by administered intraperitoneally (i.p.) with 30 IU of hCG on the fifth day (day 26) in order to induce OHSS clinical manifestations.
(§2) Measuring vascular permeability (VP). VP was used as an index to estimate and compare the degree of development of the illness. VP was measured in all animals 48-56 hours after hCG administration, following methodology previously described (Gomez et al., supra). Briefly, 0.2 ml Evans Blue dye, 0.05 M, was injected through the femoral vein. After 30 minutes, the peritoneal cavity was irrigated with 5 ml saline, pH 6, 22° C., and massaged for 30 seconds to recover extravasated dye. The peritoneal fluid was recovered in 13 ml tubes containing 0.1 ml NaOH. The tubes were centrifuged at 900×g for 12 minutes to avoid protein interference. The supernatant was filtered through 0.22 um filters in order to eliminate ascitic protein/fibrin mucus which could interfere in the posterior measurements. Finally the absorbance of the extravasated dye was measured at 595 nm using a spectrophotometer. Average and average deviations in each group (see below) were calculated. VP was expressed as μg extravasated Evans Blue dye/100 g body weight in each animal.
For Example 5, three quinagolide doses were tested: 5, […] 250 μg/kg/day. The 250 μg/kg/day dose was tested in order to determine if the maximal potential inhibitory effect of quinagolide had been reached in Example 4.
A total of 26 rats were used for this study. All 26 rats were administered PMSG/hCG to induce OHSS symptoms, as described above. Quinagolide was administered to 18 rats, divided into three groups of six rats per group. The 18 rats that received quinagolide were used as a dose response test group. […] A positive control group was not employed for this Example. The specific details of the dosing regimen for each group is as follows:
Vehicle control group (quinagolide 0 μg/kg) (n=8). Eight rats were implanted with prolactin placebo pellets, 5 days release, between 10:00 to 11:00 on day 26, just following hCG injection (see General Procedures, above). Six hours after prolactin placebo pellet implantation, the rats in this group were orally administered vehicle solution (1:6 alcohol:water mixture) (without quinagolide). They received another oral administration of vehicle solution 24 hours later. Experimental groups (quinagolide at 5, 62.5, 250 μg/kg/day to 3 test groups of rats) (n=6 in each test group). These rats were implanted with prolactin pellets, 5 days release, between 10:00 to 11:00 am on day 26, just following hCG injection (see General Procedures, above). […] In this manner, the desired 5, 62.5, and 250 μg/kg doses to be assayed were achieved. Twenty four hours later, the rats in this group were administered with another dose of the same amounts of quinagolide. Reconstitution and dilution process to reach appropriate quinagolide doses for oral administration. A commercial drug, Norprolac®, was used as the source of quinagolide for this Example. Four Norprolac® pills, containing 150 μg quinagolide each (600 μg quinagolide total) were diluted in 6250 μl of distilled water. A volume of 1250 μl of alcohol was added to reach a vehicle solution (1:6 alcohol:water mixture) containing 80 μg quinagolide per ml solution. A 1.5 ml aliquot was serially diluted (1:4, 1:12.5) in the same vehicle solution. A 250 μl oral administration of each quinagolide solution was given to the appropriate rat in each group on the same day hCG was administered (day 26), as described. […]

OHSS rats [2] = experiment: Dose response of quinagolide on vascular permeability in OHSS rats (Example 4); assay type: in vivo, Wistar rats; settings: single rat, 48-56 h after hCG
Method: as §1, §2
A total of 70 rats were used for this study. All 70 rats were administered PMSG/hCG to induce OHSS symptoms, as described above. Quinagolide (batch no. 1010003004; supplied by Ferring Labs) was administered to 56 rats. The 56 rats that received quinagolide were used as a dose response test group. […] Cabergoline (Dostinex®) was administered to 6 rats as a positive control. The specific details of the dosing regimen for each group is as follows:
Vehicle control group (quinagolide 0 μg/kg) (n=8). Eight rats were implanted with prolactin placebo pellets, 5 days release, between 10:00 to 11:00 on day 26, just following hCG injection (see General Procedures, above). Six hours after pellet implantation, the rats in this group were orally administered vehicle solution (1:6 alcohol in water mixture) (without quinagolide). They received another oral vehicle administration of vehicle solution 24 hours later. Experimental groups (quinagolide at 0.1, 0.3, 1, 3, 10, 25, 50 μg/kg/day to 7 test groups of rats) (n=8 in each test group). The rats in these groups were implanted with prolactin pellets, 5 days release, between 10:00 to 11:00 on day 26, just following hCG injection (see General Procedures, above). […] In this manner, the desired 0.1, 0.3, 1, 3, 10, 25, 50 μg/kg doses to be assayed were achieved. Twenty four hours later, the rats in this group were administered with another dose of the same amounts of quinagolide. Positive (cabergoline) control group (n=6). These six rats were implanted with prolactin pellets, 5 days release, between 10:00 to 11:00 .m on day 26, just following hCG injection. […] Twenty four hours later, the rats in this group were administered with another dose of the same amount of cabergoline. […] Reconstitution and dilution process to reach appropriate quinagolide doses for oral administration. Appropriate doses were prepared fresh just prior to being administered (on day 26). A single quinagolide vial, containing approximately 2.30-2.30 mg quinagolide, was employed for each single set of animals. For each solution, approximately 2.30-2.30 mg quinagolide was diluted in a vehicle solution (1:6 alcohol:water mixture) to achieve a stock concentration of 100 μg quinagolide per ml solution. […]

[3] = quinagolide 5 μg/kg/day oral (Norprolac pills)
[4] = quinagolide 250 μg/kg/day oral (Norprolac pills)
[5] = quinagolide 62. μg/kg/day oral (Norprolac pills)

CCCN1CC(NS(=O)(=O)N(CC)CC)CC2Cc3c(O)cccc3CC21 (stereo not drawn) [Quinagolide, quinagolide]
Absorbance at 595 nm (OHSS rats [1]; [3]): 0.622 and 0.924 and 0.491 and 0.181 and 0.242 and 0.335
μg EB per 100 g body weight (OHSS rats [1]; [3]): 38.74 μg EB per 100 g body weight and 55.57 μg EB per 100 g body weight and 28.74 μg EB per 100 g body weight and 10.96 μg EB per 100 g body weight and 14.76 μg EB per 100 g body weight and 22.13 μg EB per 100 g body weight
μg Evans Blue (Abs * 4360) (OHSS rats [1]; [3]): 2711.92 µg and 4028.64 µg and 2140.76 µg and 789.16 µg and 1055.12 µg and 1460.6 µg
Absorbance at 595 nm (OHSS rats [1]; [4]): 0.03 and 0.036 and 0.1709 and 0.021 and 0.103 and 0.056
μg EB per 100 g body weight (OHSS rats [1]; [4]): 1.721 μg EB per 100 g body weight and 2.854 μg EB per 100 g body weight and 10.88 μg EB per 100 g body weight and 1.356 μg EB per 100 g body weight and 6.703 μg EB per 100 g body weight and 3.513 μg EB per 100 g body weight
μg Evans Blue (Abs * 4360) (OHSS rats [1]; [4]): 130.8 µg and 156.96 µg and 745.124 µg and 91.56 µg and 449.08 µg and 244.16 µg
Absorbance at 595 nm (OHSS rats [1]; [5]): 0.115 and 0.125 and 0.256 and 0.209 and 0.299 and 0.201
μg EB per 100 g body weight (OHSS rats [1]; [5]): 7.214 μg EB per 100 g body weight and 7.517 μg EB per 100 g body weight and 16.06 μg EB per 100 g body weight and 13.3 μg EB per 100 g body weight and 19.03 μg EB per 100 g body weight and 12.26 μg EB per 100 g body weight
μg Evans Blue (Abs * 4360) (OHSS rats [1]; [5]): 501.4 µg and 545 µg and 1116.16 µg and 911.24 µg and 1303.64 µg and 876.36 µg
Absorbance at 595 nm (OHSS rats [2]; quinagolide 0.1 μg/kg/day oral): 0.081 and 0.646 and 0.338 and 0.35
μg EB per 100 g body weight (OHSS rats [2]; quinagolide 0.1 μg/kg/day oral): 4.871 μg EB per 100 g body weight and 37.81 μg EB per 100 g body weight and 21.05 μg EB per 100 g body weight and 21.19 μg EB per 100 g body weight
μg Evans Blue (Abs * 4360) (OHSS rats [2]; quinagolide 0.1 μg/kg/day oral): 353.16 µg and 2816.56 µg and 1473.68 µg and 1526 µg
Absorbance at 595 nm (OHSS rats [2]; quinagolide 0.3 μg/kg/day oral): 0.28 and 0.547 and 0.768 and 0.342 and 0.444
μg EB per 100 g body weight (OHSS rats [2]; quinagolide 0.3 μg/kg/day oral): 16.96 μg EB per 100 g body weight and 36.69 μg EB per 100 g body weight and 47.84 μg EB per 100 g body weight and 20.57 μg EB per 100 g body weight and 25.8112 μg EB per 100 g body weight
μg Evans Blue (Abs * 4360) (OHSS rats [2]; quinagolide 0.3 μg/kg/day oral): 1220.8 µg and 2384.92 µg and 3348.48 µg and 1491.12 µg and 1935.84 µg
Absorbance at 595 nm (OHSS rats [2]; quinagolide 1 μg/kg/day oral): 0.396 and 0.341 and 0.389 and 0.424 and 0.256 and 0.205
μg EB per 100 g body weight (OHSS rats [2]; quinagolide 1 μg/kg/day oral): 27.85 μg EB per 100 g body weight and 22.53 μg EB per 100 g body weight and 22.32 μg EB per 100 g body weight and 26.41 μg EB per 100 g body weight and 14.31 μg EB per 100 g body weight and 12.33 μg EB per 100 g body weight
μg Evans Blue (Abs * 4360) (OHSS rats [2]; quinagolide 1 μg/kg/day oral): 1726.56 µg and 1486.76 µg and 1696.04 µg and 1848.64 µg and 1116.16 µg and 893.8 µg
Absorbance at 595 nm (OHSS rats [2]; quinagolide 3 μg/kg/day oral): 0.09 and 0.394 and 0.181 and 0.584 and 0.369 and 0.581
μg EB per 100 g body weight (OHSS rats [2]; quinagolide 3 μg/kg/day oral): 5.945 μg EB per 100 g body weight and 26.84 μg EB per 100 g body weight and 9.927 μg EB per 100 g body weight and 37.17 μg EB per 100 g body weight and 23.32 μg EB per 100 g body weight and 31.08 μg EB per 100 g body weight
μg Evans Blue (Abs * 4360) (OHSS rats [2]; quinagolide 3 μg/kg/day oral): 392.4 µg and 1717.84 µg and 789.16 µg and 2546.24 µg and 1608.84 µg and 2533.16 µg
Absorbance at 595 nm (OHSS rats [2]; quinagolide 10 μg/kg/day oral): 0.418 and 0.145 and 0.188 and 0.328 and 0.626
μg EB per 100 g body weight (OHSS rats [2]; quinagolide 10 μg/kg/day oral): 24.63 μg EB per 100 g body weight and 8.543 μg EB per 100 g body weight and 12.42 μg EB per 100 g body weight and 19.73 μg EB per 100 g body weight and 37.39 μg EB per 100 g body weight
μg Evans Blue (Abs * 4360) (OHSS rats [2]; quinagolide 10 μg/kg/day oral): 1822.48 µg and 632.2 µg and 819.68 µg and 1430.08 µg and 2729.36 µg
Absorbance at 595 nm (OHSS rats [2]; quinagolide 25 μg/kg/day oral): 0.299 and 0.311 and 0.042 and 0.669 and 0.08
μg EB per 100 g body weight (OHSS rats [2]; quinagolide 25 μg/kg/day oral): 19.17 μg EB per 100 g body weight and 19.23 μg EB per 100 g body weight and 2.654 μg EB per 100 g body weight and 40.51 μg EB per 100 g body weight and 4.501 μg EB per 100 g body weight
μg Evans Blue (Abs * 4360) (OHSS rats [2]; quinagolide 25 μg/kg/day oral): 1303.64 µg and 1355.96 µg and 183.12 µg and 2916.84 µg and 348.8 µg
Absorbance at 595 nm (OHSS rats [2]; quinagolide 50 μg/kg/day oral): 0.179 and 0.048 and 0.151 and 0.358 and 0.09 and 0.215
μg EB per 100 g body weight (OHSS rats [2]; quinagolide 50 μg/kg/day oral): 10.84 μg EB per 100 g body weight and 2.847 μg EB per 100 g body weight and 9.144 μg EB per 100 g body weight and 22.95 μg EB per 100 g body weight and 5.267 μg EB per 100 g body weight and 12.5 μg EB per 100 g body weight
μg Evans Blue (Abs * 4360) (OHSS rats [2]; quinagolide 50 μg/kg/day oral): 780.44 µg and 209.28 µg and 658.36 µg and 1560.88 µg and 392.4 µg and 937.4 µg
